Literature values as cited in article PMC6856260 (Clinical Pharmacokinetics, 2019).
Like-named read-outs stand apart in the source and are kept apart here.

What was measured:
[1] = co-formulated with 5-CNAC
[2] = post-dose fasting periods of 15, 30, 60 and 120 min; oral, co-formulated with SNAC

Q: What does the source list for salmon calcitonin?
A: reduction of exposure of salmon calcitonin ([1]; meal 10 min after oral dosing versus 60 min post-dose fasting): up to 30%; reduction of exposure of salmon calcitonin ([1]; meal 10 min after oral dosing versus 4 h post-dose fasting): 41%

Q: With “semaglutide: oral semaglutide co-formulated with SNAC” as the substance, how does the “effect of increasing post-dose fasting period on exposure (in words)” value [2] read?
A: The value was “increasing semaglutide exposure”.
